Among the data in PubChem BioAssay (NCI) are TGI values, retold here.

Among the test systems are BT-549 breast; SR leukemia; COLO 205 colon; NCI-H226 lung; MALME-3M melanoma; A498 renal; SNB-19 CNS; CAKI-1 renal; SK-MEL-5 melanoma; PC-3 prostate; SF-539 CNS; MDA-MB-231 breast; K-562 leukemia; HT29 colon; HOP-92 NSCLC; HCC-2998 colon.
Common to all, as to assay: inhibition of tumour cell growth, NCI panel, 48 h

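A five-concentration, 48-hour dose response in 96-well plates underlies each endpoint, interpolated linearly between surrounding concentrations. TGI denotes the concentration required for complete inhibition of growth.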

On to `CC(=O)OCC1OC(c2nc3ccccc3s2)=CC(OC(C)=O)C1OC(C)=O` (centres undefined), for which the TGI in the experiment on BT-549 breast, in the experiment with SR leukemia, in the experiment with COLO 205 colon, with NCI-H226 lung, in the experiment with MALME-3M melanoma and with A498 renal was > 100 µM each time. Further, the TGI with SNB-19 CNS, in the experiment on CAKI-1 renal, with SK-MEL-5 melanoma, in the experiment on PC-3 prostate, in the experiment with SF-539 CNS and in the experiment with MDA-MB-231 breast was > 100 µM throughout. The TGI in the experiment on K-562 leukemia and in the experiment with HT29 colon was > 100 µM throughout.
`CC[C@]1(Cc2ccc(OC)c(OC)c2)C=[N+]([O-])O[C@H](OC2CCCC2(c2ccccc2)c2ccccc2)[C@@H]1OC(C)=O` (some centres undefined): the TGI was 54.7 µM in the experiment with HOP-92 NSCLC; 27.9 µM in the experiment on BT-549 breast; > 100 µM with SR leukemia; 12 µM with COLO 205 colon; 4.83 µM in the experiment with MALME-3M melanoma; 18.5 µM with SNB-19 CNS. For the same molecule, the TGI is 11.9 µM in the experiment on SK-MEL-5 melanoma; 7.71 µM in the experiment on HCC-2998 colon; 18.4 µM with PC-3 prostate; > 41.3 µM in the experiment with MDA-MB-231 breast; > 27.7 µM with K-562 leukemia; 4.55 µM in the experiment on HT29 colon.
Turning to `COc1cc(OC)nc(-n2c(N)c(C#N)c3ccc([N+](=O)[O-])cc3c2=O)n1`, the TGI with HOP-92 NSCLC, in the experiment on BT-549 breast, in the experiment with SR leukemia, in the experiment on COLO 205 colon, with A498 renal and in the experiment on SNB-19 CNS was > 100 µM throughout. Further, the TGI with CAKI-1 renal, in the experiment with SK-MEL-5 melanoma, in the experiment on HCC-2998 colon, in the experiment with PC-3 prostate, in the experiment on SF-539 CNS and in the experiment on MDA-MB-231 breast was > 100 µM each time. For the same molecule, in the experiment with HT29 colon, the TGI was > 100 µM.
On to `C=CCC1(OC(C)=O)C2OC(=O)C1(O)OCC2O` (centres undefined), for which the TGI in the experiment on BT-549 breast, in the experiment with SR leukemia, in the experiment with COLO 205 colon, with NCI-H226 lung, with MALME-3M melanoma and in the experiment on A498 renal was > 100 µM each time. Moreover, the TGI in the experiment with SNB-19 CNS, in the experiment on CAKI-1 renal, with SK-MEL-5 melanoma, in the experiment with HCC-2998 colon, with PC-3 prostate and in the experiment on SF-539 CNS was > 100 µM in each case. Further, the TGI with MDA-MB-231 breast, in the experiment with K-562 leukemia and in the experiment on HT29 colon was > 100 µM throughout.
Take `CN(C)CCNC(=O)c1cc([N+](=O)[O-])cc2c1Oc1ccccc1O2`: the TGI was > 100 µM in the experiment on BT-549 breast; > 100 µM with SR leukemia; 33.3 µM in the experiment with COLO 205 colon; 50 µM with NCI-H226 lung; 97.9 µM with MALME-3M melanoma; > 100 µM in the experiment on A498 renal. Moreover, the TGI with CAKI-1 renal is > 100 µM; in the experiment on SK-MEL-5 melanoma it was > 100 µM; with HCC-2998 colon, 24.1 µM; in the experiment with PC-3 prostate, > 100 µM; in the experiment with SF-539 CNS it was > 100 µM; in the experiment with K-562 leukemia it was > 100 µM. Further, in the experiment with HT29 colon, the TGI was > 100 µM.
Take `CCn1c(SCC(=O)NNC(=S)Nc2ccc([N+](=O)[O-])cc2)nc2ccccc2c1=O`: the TGI in the experiment on BT-549 breast, in the experiment on SR leukemia, in the experiment on COLO 205 colon, in the experiment with NCI-H226 lung, in the experiment on MALME-3M melanoma and with A498 renal was > 100 µM throughout. Also, the TGI in the experiment with SNB-19 CNS, in the experiment with CAKI-1 renal, with SK-MEL-5 melanoma, in the experiment on HCC-2998 colon, in the experiment on PC-3 prostate and in the experiment with SF-539 CNS was > 100 µM in each case. The TGI in the experiment with MDA-MB-231 breast and in the experiment on K-562 leukemia was > 100 µM throughout.
Take `O=C1CSC(c2ccc([N+](=O)[O-])cc2)N1c1ccc(-n2c(-c3ccccc3)nc3ccccc3c2=O)cc1` (centres undefined): the TGI in the experiment with BT-549 breast, in the experiment with SR leukemia, in the experiment with COLO 205 colon, in the experiment with NCI-H226 lung, with MALME-3M melanoma and with A498 renal was > 100 µM each time. In addition, the TGI with SNB-19 CNS, in the experiment on CAKI-1 renal, with SK-MEL-5 melanoma, in the experiment on HCC-2998 colon, with PC-3 prostate and in the experiment on SF-539 CNS was > 100 µM in each case. In addition, the TGI in the experiment on MDA-MB-231 breast, with K-562 leukemia and in the experiment on HT29 colon was > 100 µM in each case.
In the case of `Cc1cc(N(CCC#N)CCC#N)ccc1/C(N=Nc1ccc(C(=O)O)cc1)=N\NC(=O)c1cc(Cl)ccc1O`, the TGI with BT-549 breast is > 100 µM; with SR leukemia it was > 100 µM; with COLO 205 colon it was > 100 µM; in the experiment with NCI-H226 lung, 49.9 µM; with MALME-3M melanoma, > 100 µM; in the experiment with A498 renal it was 87.7 µM. In addition, the TGI with SNB-19 CNS was 55.9 µM; in the experiment on CAKI-1 renal, > 100 µM; in the experiment with SK-MEL-5 melanoma it was > 100 µM; in the experiment with HCC-2998 colon it was > 100 µM; in the experiment on PC-3 prostate, > 100 µM; with MDA-MB-231 breast, 63.1 µM. Moreover, the TGI with K-562 leukemia and with HT29 colon was > 100 µM each time.
`Cc1nn(C(=O)Cc2ccccc2)c2c1C(c1ccc(O)cc1O)SC(N)=N2` (centres undefined): the TGI in the experiment with BT-549 breast, in the experiment with SR leukemia, in the experiment with COLO 205 colon, in the experiment on NCI-H226 lung, with MALME-3M melanoma and in the experiment with A498 renal was > 100 µM each time. For the same molecule, the TGI in the experiment with SNB-19 CNS, in the experiment with CAKI-1 renal, with SK-MEL-5 melanoma, in the experiment with HCC-2998 colon, in the experiment with PC-3 prostate and with SF-539 CNS was > 100 µM each time. The TGI in the experiment on MDA-MB-231 breast and with HT29 colon was > 100 µM in each case.
As to `CC(C)(C)OC(=O)N1CCC(C(=O)O)CC1`, the TGI in the experiment on HOP-92 NSCLC, with BT-549 breast, in the experiment on SR leukemia, with COLO 205 colon, with MALME-3M melanoma and in the experiment on A498 renal was > 100 µM throughout. For the same molecule, the TGI in the experiment on SNB-19 CNS, in the experiment with CAKI-1 renal, in the experiment with SK-MEL-5 melanoma, in the experiment with HCC-2998 colon, in the experiment on PC-3 prostate and in the experiment on SF-539 CNS was > 100 µM throughout. The TGI in the experiment with MDA-MB-231 breast and in the experiment on HT29 colon was > 100 µM each time.
In the case of `COC(=O)CNS(=O)(=O)c1ccc(-c2c3nc(c(-c4ccc(S(=O)(=O)NCC(=O)OC)cc4)c4ccc([nH]4)c(-c4ccc(S(=O)(=O)NCC(=O)OC)cc4)c4nc(c(-c5ccc(S(=O)(=O)NCC(=O)OC)cc5)c5ccc2[nH]5)C=C4)C=C3)cc1`, the TGI in the experiment on BT-549 breast, in the experiment on SR leukemia, with COLO 205 colon, in the experiment with MALME-3M melanoma, with A498 renal and in the experiment on SNB-19 CNS was > 100 µM each time. For the same molecule, the TGI in the experiment on CAKI-1 renal, with SK-MEL-5 melanoma, with HCC-2998 colon, with PC-3 prostate, with SF-539 CNS and with MDA-MB-231 breast was > 100 µM throughout. Moreover, the TGI in the experiment on K-562 leukemia and with HT29 colon was > 100 µM in each case.
On to `CC[C@@H]1CC[C@@H]2[C@H](CC[C@]3(C)[C@@H](OS(=O)(=O)c4ccc(C)cc4)CC[C@@H]23)[C@H]1COS(=O)(=O)c1ccc(C)cc1`, for which the TGI in the experiment on HOP-92 NSCLC, in the experiment with BT-549 breast, in the experiment with SR leukemia, in the experiment on NCI-H226 lung, in the experiment on MALME-3M melanoma and in the experiment with A498 renal was > 100 µM in each case. Moreover, the TGI in the experiment on SNB-19 CNS, in the experiment with SK-MEL-5 melanoma, in the experiment on HCC-2998 colon, in the experiment with PC-3 prostate, with SF-539 CNS and in the experiment with K-562 leukemia was > 100 µM throughout. In the experiment on HT29 colon, the TGI was > 100 µM.
Consider `COc1ccc(CNC(=O)NCn2cc(-c3ccccc3)nn2)cc1`, for which the TGI with HOP-92 NSCLC, with BT-549 breast, in the experiment with SR leukemia, in the experiment with COLO 205 colon, in the experiment on MALME-3M melanoma and with SNB-19 CNS was > 100 µM in each case. The TGI in the experiment with CAKI-1 renal, in the experiment with SK-MEL-5 melanoma, in the experiment with HCC-2998 colon, in the experiment on PC-3 prostate, in the experiment on SF-539 CNS and with MDA-MB-231 breast was > 100 µM throughout. Also, the TGI in the experiment with K-562 leukemia and in the experiment with HT29 colon was > 100 µM in each case.
For the molecule `CCN(CC)/C(Sc1ccccc1)=C(\C(Cl)=C(Cl)Cl)[N+](=O)[O-]`, the TGI in the experiment with HOP-92 NSCLC was 36.4 µM; with BT-549 breast it was 38.1 µM; in the experiment on COLO 205 colon it was 31.5 µM; in the experiment on NCI-H226 lung it was 42.8 µM; in the experiment with MALME-3M melanoma it was 39.9 µM; in the experiment on A498 renal, 36.3 µM. Further, the TGI in the experiment with SNB-19 CNS was 49.9 µM; in the experiment with CAKI-1 renal, 29.2 µM; with SK-MEL-5 melanoma, 29 µM; in the experiment on HCC-2998 colon, 34.3 µM; in the experiment on PC-3 prostate, 33.3 µM; in the experiment with SF-539 CNS, 33 µM. Moreover, the TGI in the experiment with MDA-MB-231 breast came out at 50.5 µM; in the experiment with K-562 leukemia it was 31.9 µM; in the experiment with HT29 colon, 45.8 µM.
